Source: patent US10703733B2, “MCL-1 inhibitors” (Gilead Sciences, Inc., priority 2018, dated 2020)
Read-outs that look alike come from different tables or passages of the source.

Key:
[1] = target: MCL-1/Bim interaction (recombinant human MCL-1 protein, residues 171-327; biotinylated human Bim peptide, residues 51-76) (Homo sapiens (Human), UniProt Q07820); test: MCL-1/Bim Binding AlphaLISA Assay; details: 0.0625 nM 6xHis-Mcl-1 (171-327), 0.0625 nM biotinylated-Bim peptide
Summary of the method: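 Compounds first sat 1 h with MCL-1 (171-327, 0.0625 nM), followed by 2 h with biotin-Bim 51-76 (0.0625 nM), then sequential 1 h anti-His acceptor and streptavidin donor bead steps; buffer Hepes pH 7.5 with NaCl, Brij 35, DTT, BSA. AlphaScreen signal converted to % inhibition using DMSO (negative) and protein/peptide-free (positive) controls.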

[2] = test system: SKBR3 cells; test: SKBR3 Cell Viability Assay (CellTiter Glo); format: cell-based; details: CellTiter Glo luminescence, read-out: MCL-1 CV SKBR3 EC50
Summary of the method: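 Viability read as CellTiter Glo luminescence after 72 h of compound exposure at 37° C./5% CO2, using 6,000 SKBR3 cells per well in McCoy 5A with 10% FBS. Percent inhibition scaled between DMSO wells and 10 μM puromycin wells.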

Sequence of MCL-1/Bim interaction (recombinant human MCL-1 protein, residues 171-327; biotinylated human Bim peptide, residues 51-76) (Q07820 171-327): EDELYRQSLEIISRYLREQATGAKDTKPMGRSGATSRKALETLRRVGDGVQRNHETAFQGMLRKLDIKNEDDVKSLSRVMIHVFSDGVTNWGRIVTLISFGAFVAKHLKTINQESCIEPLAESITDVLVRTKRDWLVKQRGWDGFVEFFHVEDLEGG

Structure (SMILES)	IC50 [1]	EC50 ([2]; Homo sapiens, SK-BR-3, 72 h)	EC50 ([2]; 72 hours)
COC[C@H]1C[C@@H]1NC(=O)N[S@@]1(=O)=NC(=O)c2ccc3c(c2)N(C[C@@H]2CC[C@H]2[C@@H](OC)/C=C/C[C@H](C)C1)C[C@@]1(CCCc2cc(Cl)ccc21)CO3 [Example 303]	0.045 nM	22.8 nM	–
CO[C@H]1/C=C/C[C@H](C)C[S@@](=O)(NC(=O)N2CC3(CCOC3)C2)=NC(=O)c2ccc3c(c2)N(C[C@@H]2CC[C@H]21)C[C@@]1(CCCc2cc(Cl)ccc21)CO3 [Example 456]	0.099 nM	174 nM	–
CO[C@H]1/C=C/C[C@H](C)C[S@@](=O)(NC(=O)c2cnn(CC3CC3)c2)=NC(=O)c2ccc3c(c2)N(C[C@@H]2CC[C@H]21)C[C@@]1(CCCc2cc(Cl)ccc21)CO3 [Example 419]	0.186 nM	135 nM	–
COc1nn(C)cc1C(=O)N[S@@]1(=O)=NC(=O)c2ccc3c(c2)N(C[C@@H]2CC[C@H]2[C@@H](OC(=O)OC(C)C)/C=C/C[C@H](C)C1)C[C@@]1(CCCc2cc(Cl)ccc21)CO3 [Example 384]	0.34 nM	154 nM	–
CO[C@H]1/C=C/CCC[S@@](=O)(NC(=O)CCC(F)(F)F)=NC(=O)c2ccc3c(c2)N(C[C@@H]2CC[C@H]21)C[C@@]1(CCCc2cc(Cl)ccc21)CO3 [Example 94]	0.9 nM	902 nM	–
CO[C@H]1/C=C/C[C@H](C)C[S@@](=O)(NC(=O)Nc2ccnc(C)c2)=NC(=O)c2ccc3c(c2)N(C[C@@H]2CC[C@H]21)C[C@@]1(CCCc2cc(Cl)ccc21)CO3 [Example 443]	0.187 nM	162 nM	–
CO[C@H]1/C=C/C[C@H](C)C[S@@](=O)(NC(=O)N[C@@H]2C[C@H]2c2ccnn2C)=NC(=O)c2ccc3c(c2)N(C[C@@H]2CC[C@H]21)C[C@@]1(CCCc2cc(Cl)ccc21)CO3 [Example 182]	0.144 nM	136 nM	–
CCn1cc(C(=O)N[S@@]2(=O)=NC(=O)c3ccc4c(c3)N(C[C@@H]3CC[C@H]3[C@@H](OC)/C=C/C[C@H](C)[C@H]2C)C[C@@]2(CCCc3cc(Cl)ccc32)CO4)cn1 [Example 153]	0.086 nM	69.5 nM	–
CO[C@H]1/C=C/C[C@H](C)C[S@@](=O)(NC(=O)N[C@H]2C[C@@H]2OC)=NC(=O)c2ccc3c(c2)N(C[C@@H]2CC[C@H]21)C[C@@]1(CCCc2cc(Cl)ccc21)CO3 (single isomer, unassigned) [Example 195]	0.036 nM	–	29.6 nM
CC[C@H]1C/C=C/[C@H](OC)[C@@H]2CC[C@H]2CN2C[C@@]3(CCCc4cc(Cl)ccc43)COc3ccc(cc32)C(=O)N=[S@](=O)(NC(=O)c2cc3n(c2)CCOC3)C1 [Example 202]	0.082 nM	91 nM	–
CO[C@H]1/C=C/C[C@H](C)C[S@@](=O)(NC(=O)[C@H]2C[C@@H]2c2cccnc2)=NC(=O)c2ccc3c(c2)N(C[C@@H]2CC[C@H]21)C[C@@]1(CCCc2cc(Cl)ccc21)CO3 [Example 426]	0.091 nM	316 nM	–
CCC(=O)N[S@@]1(=O)=NC(=O)c2ccc3c(c2)N(C[C@@H]2CC[C@H]2[C@@H](OC)/C=C/C[C@H](C)[C@H]1C)C[C@@]1(CCCc2cc(Cl)ccc21)CO3 [Example 2]	1.5 nM	792 nM	–
CO[C@H]1/C=C/CCC[S@@](=O)(NC(=O)CCc2c(C)cnn2C)=NC(=O)c2ccc3c(c2)N(C[C@@H]2CC[C@H]21)C[C@@]1(CCCc2cc(Cl)ccc21)CO3 [Example 103]	1 nM	10000 nM	–
CO[C@H]1/C=C/C[C@H](C)C[S@@](=O)(NC(=O)CO[C@H]2CCOC[C@H]2F)=NC(=O)c2ccc3c(c2)N(C[C@@H]2CC[C@H]21)C[C@@]1(CCCc2cc(Cl)ccc21)CO3 [Example 416]	0.047 nM	131 nM	–
CCc1nn(C)cc1C(=O)N[S@@]1(=O)=NC(=O)c2ccc3c(c2)N(C[C@@H]2CC[C@H]2[C@@H](OC)/C=C/C[C@H](C)C1)C[C@@]1(CCCc2cc(Cl)ccc21)CO3 [Example 187]	0.107 nM	43.1 nM	–
CO[C@H]1/C=C/C[C@H](C)C[S@@](=O)(NC(=O)N[C@@H]2C[C@@H]2F)=NC(=O)c2ccc3c(c2)N(C[C@@H]2CC[C@H]21)C[C@@]1(CCCc2cc(Cl)ccc21)CO3 [Example 116]	0.08 nM	141 nM	–
CO[C@H]1/C=C/C[C@H](C)C[S@@](=O)(NC(=O)N[C@H]2CC23CCOC3)=NC(=O)c2ccc3c(c2)N(C[C@@H]2CC[C@H]21)C[C@@]1(CCCc2cc(Cl)ccc21)CO3 (single isomer, unassigned) [Example 341]	0.032 nM	39.4 nM	–
COc1nn(C)cc1C(=O)N[S@@]1(=O)=NC(=O)c2ccc3c(c2)N(C[C@@H]2CC[C@H]2[C@@H](OCCN2CCOCC2)/C=C/C[C@H](C)C1)C[C@@]1(CCCc2cc(Cl)ccc21)CO3 [Example 366]	0.086 nM	53.1 nM	–
COCCCn1cc(C(=O)N[S@@]2(=O)=NC(=O)c3ccc4c(c3)N(C[C@@H]3CC[C@H]3[C@@H](OC)/C=C/C[C@H](C)C2)C[C@@]2(CCCc3cc(Cl)ccc32)CO4)cc1COC [Example 338]	0.09 nM	124 nM	–

Structure (SMILES)	IC50 [1]	EC50 ([2]; Homo sapiens, SK-BR-3, 72 h)	EC50 ([2]; 72 hours)
CNc1nn(C)cc1C(=O)N[S@@]1(=O)=NC(=O)c2ccc3c(c2)N(C[C@@H]2CC[C@H]2[C@@H](OC)/C=C/C[C@H](C)C1)C[C@@]1(CCCc2cc(Cl)ccc21)CO3 [Example 212]	0.04 nM	37.6 nM	–
COC[C@H]1Cn2cc(C(=O)N[S@@]3(=O)=NC(=O)c4ccc5c(c4)N(C[C@@H]4CC[C@H]4[C@@H](O)/C=C/C[C@H](C)C3)C[C@@]3(CCCc4cc(Cl)ccc43)CO5)cc2CO1 [Example 325]	0.1 nM	50.3 nM	–
CO[C@H]1/C=C/C[C@H](C)C[S@@](=O)(NC(=O)N2CC(C(C)(C)OC)C2)=NC(=O)c2ccc3c(c2)N(C[C@@H]2CC[C@H]21)C[C@@]1(CCCc2cc(Cl)ccc21)CO3 [Example 265]	0.046 nM	96.2 nM	–
C[C@H]1C/C=C/[C@H](OCC2CC2)[C@@H]2CC[C@H]2CN2C[C@@]3(CCCc4cc(Cl)ccc43)COc3ccc(cc32)C(=O)N=[S@](=O)(NC(=O)c2cnn(C)c2)C1 [Example 410]	0.194 nM	146 nM	–
CO[C@H]1/C=C/C[C@H](C)C[S@@](=O)(NC(=O)N2CCN(CC#N)CC2)=NC(=O)c2ccc3c(c2)N(C[C@@H]2CC[C@H]21)C[C@@]1(CCCc2cc(Cl)ccc21)CO3 [Example 270]	0.041 nM	61.7 nM	–
CO[C@H]1/C=C/C[C@H](C)C[S@@](=O)(NC(=O)c2cc(CN3CCN4CCOC[C@@H]4C3)n(C)c2)=NC(=O)c2ccc3c(c2)N(C[C@@H]2CC[C@H]21)C[C@@]1(CCCc2cc(Cl)ccc21)CO3 [Example 238]	0.033 nM	23.4 nM	–
CO[C@H]1/C=C/C[C@H](C)C[S@@](=O)(NC(=O)N2CC(Oc3ccncc3)C2)=NC(=O)c2ccc3c(c2)N(C[C@@H]2CC[C@H]21)C[C@@]1(CCCc2cc(Cl)ccc21)CO3 [Example 275]	0.053 nM	90.4 nM	–
CO[C@H]1/C=C/C[C@H](C)C[S@@](=O)(NC(=O)[C@@H](O)Cc2ccccc2)=NC(=O)c2ccc3c(c2)N(C[C@@H]2CC[C@H]21)C[C@@]1(CCCc2cc(Cl)ccc21)CO3 [Example 121]	0.163 nM	71.5 nM	–
CO[C@H]1/C=C/C[C@H](C)C[S@@](=O)(NC(=O)[C@@]23COCC2C3)=NC(=O)c2ccc3c(c2)N(C[C@@H]2CC[C@H]21)C[C@@]1(CCCc2cc(Cl)ccc21)CO3 (some centres unmarked) [Example 446]	0.149 nM	176 nM	–
COCc1oc(C(=O)N[S@@]2(=O)=NC(=O)c3ccc4c(c3)N(C[C@@H]3CC[C@H]3[C@@H](OC)/C=C/C[C@H](C)C2)C[C@@]2(CCCc3cc(Cl)ccc32)CO4)cc1C [Example 339]	0.07 nM	53.2 nM	–
CO[C@H]1/C=C/C[C@H](C)C[S@@](=O)(NC(=O)N2CC(N3CCOCC3)C2)=NC(=O)c2ccc3c(c2)N(C[C@@H]2CC[C@H]21)C[C@@]1(CCCc2cc(Cl)ccc21)CO3 [Example 349]	0.026 nM	33.7 nM	–
CO[C@H]1/C=C/C[C@H](C)C[S@@](=O)(NC(=O)NC2COC2)=NC(=O)c2ccc3c(c2)N(C[C@@H]2CC[C@H]21)C[C@@]1(CCCc2cc(Cl)ccc21)CO3 [Example 428]	0.069 nM	165 nM	–
CO[C@H]1/C=C/C[C@H](C)C[S@@](=O)(NC(=O)N2C3COCC2C3)=NC(=O)c2ccc3c(c2)N(C[C@@H]2CC[C@H]21)C[C@@]1(CCCc2cc(Cl)ccc21)CO3 [Example 236]	0.055 nM	152 nM	–
CO[C@H]1/C=C/C[C@H](C)C[S@@](=O)(NC(=O)NC2C[C@H]2C(F)F)=NC(=O)c2ccc3c(c2)N(C[C@@H]2CC[C@H]21)C[C@@]1(CCCc2cc(Cl)ccc21)CO3 (some centres unmarked) [Example 207]	0.162 nM	44 nM	–
CO[C@H]1/C=C/C[C@H](C)C[S@@](=O)(NC(=O)c2cn(C)nc2OCC2CC2)=NC(=O)c2ccc3c(c2)N(C[C@@H]2CC[C@H]21)C[C@@]1(CCCc2cc(Cl)ccc21)CO3 [Example 221]	0.046 nM	104 nM	–
CO[C@H]1/C=C/CCC[S@@](=O)(NC(=O)C[C@H](O)c2ccccc2)=NC(=O)c2ccc3c(c2)N(C[C@@H]2CC[C@H]21)C[C@@]1(CCCc2cc(Cl)ccc21)CO3 [Example 72]	0.1 nM	262 nM	–
CO[C@H]1/C=C/C[C@H](C)C[S@@](=O)(NC(=O)c2cn(C)nc2OCC2OCCO2)=NC(=O)c2ccc3c(c2)N(C[C@@H]2CC[C@H]21)C[C@@]1(CCCc2cc(Cl)ccc21)CO3 [Example 356]	0.081 nM	233 nM	–
COC1CN(C(=O)N[S@@]2(=O)=NC(=O)c3ccc4c(c3)N(C[C@@H]3CC[C@H]3[C@@H](O)/C=C/C[C@H](C)C2)C[C@@]2(CCCc3cc(Cl)ccc32)CO4)C1 [Example 266]	0.085 nM	53.8 nM	–
